Assay results reported in patent US20050019869A1, “Chimeric neuropeptide Y receptors” (priority 2000, published 2005).
No end group written: not given here.

T1: NPY5 receptor (Homo sapiens, UniProt Q15761)
T1 construct: made in house; host or cells: Sf9 insect cells infected with recombinant baculovirus; purified membranes
T1 sequence (Q15761 with tags, fused parts or gaps): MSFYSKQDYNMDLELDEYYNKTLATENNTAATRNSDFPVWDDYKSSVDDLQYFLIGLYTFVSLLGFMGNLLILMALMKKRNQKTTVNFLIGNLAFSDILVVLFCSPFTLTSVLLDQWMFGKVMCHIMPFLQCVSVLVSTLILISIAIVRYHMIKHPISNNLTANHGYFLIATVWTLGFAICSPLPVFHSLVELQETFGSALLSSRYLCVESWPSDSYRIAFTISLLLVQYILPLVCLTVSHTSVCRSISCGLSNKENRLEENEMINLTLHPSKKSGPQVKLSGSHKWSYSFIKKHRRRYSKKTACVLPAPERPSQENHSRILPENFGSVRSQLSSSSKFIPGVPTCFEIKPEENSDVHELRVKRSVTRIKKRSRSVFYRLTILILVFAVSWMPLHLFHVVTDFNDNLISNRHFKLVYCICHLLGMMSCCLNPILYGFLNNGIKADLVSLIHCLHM

T2: NPY5ΔY1IC3 chimeric receptor (Homo sapiens, UniProt Q15761, DEL238-360/INS235IRLKRRNNMMDKMRDNKY/K361S)
T2 construct: made in house; host or cells: Sf9 insect cells infected with recombinant baculovirus (pBacPAK9 vector); purified membranes
T2 sequence (Q15761 with tags, fused parts or gaps INS235IRLKRRNNMMDKMRDNKY/DEL238-360/K361S): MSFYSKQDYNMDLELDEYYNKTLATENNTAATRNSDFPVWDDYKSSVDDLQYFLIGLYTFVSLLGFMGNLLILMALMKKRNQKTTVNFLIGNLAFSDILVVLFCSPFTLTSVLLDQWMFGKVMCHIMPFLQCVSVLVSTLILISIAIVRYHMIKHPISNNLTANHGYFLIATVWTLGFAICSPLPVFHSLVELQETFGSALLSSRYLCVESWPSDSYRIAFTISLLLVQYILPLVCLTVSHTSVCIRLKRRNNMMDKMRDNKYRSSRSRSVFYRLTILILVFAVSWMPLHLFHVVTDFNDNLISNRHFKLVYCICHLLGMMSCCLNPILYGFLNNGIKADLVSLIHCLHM

T3: NPY5ΔY1CT chimeric receptor (Homo sapiens, UniProt P25929+Q15761)
T3 construct: made in house; host or cells: Sf9 insect cells infected with recombinant baculovirus (pBacPAK9 vector); purified membranes
T3 sequence (Q15761+P25929 with tags, fused parts or gaps): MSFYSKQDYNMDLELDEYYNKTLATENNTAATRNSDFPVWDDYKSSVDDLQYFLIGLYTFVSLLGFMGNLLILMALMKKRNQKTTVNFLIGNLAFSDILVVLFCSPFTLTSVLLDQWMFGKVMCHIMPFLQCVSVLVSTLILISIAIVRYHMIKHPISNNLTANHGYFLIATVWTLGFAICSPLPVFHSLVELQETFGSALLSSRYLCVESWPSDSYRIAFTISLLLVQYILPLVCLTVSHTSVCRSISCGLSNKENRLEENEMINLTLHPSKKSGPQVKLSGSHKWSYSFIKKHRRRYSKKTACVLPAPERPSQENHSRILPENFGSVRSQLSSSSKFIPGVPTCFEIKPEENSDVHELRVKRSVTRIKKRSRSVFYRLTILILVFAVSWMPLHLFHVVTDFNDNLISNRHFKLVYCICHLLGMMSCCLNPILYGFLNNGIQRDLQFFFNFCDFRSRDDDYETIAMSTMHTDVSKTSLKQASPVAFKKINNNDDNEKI

T4: Human NPY5ΔY1CT chimera (human)
T4 construct: Human NPY5 with its C-terminal intracellular domain replaced by that of human Y1; Expressed in Sf9 cells; assayed in purified membranes
T4 chain: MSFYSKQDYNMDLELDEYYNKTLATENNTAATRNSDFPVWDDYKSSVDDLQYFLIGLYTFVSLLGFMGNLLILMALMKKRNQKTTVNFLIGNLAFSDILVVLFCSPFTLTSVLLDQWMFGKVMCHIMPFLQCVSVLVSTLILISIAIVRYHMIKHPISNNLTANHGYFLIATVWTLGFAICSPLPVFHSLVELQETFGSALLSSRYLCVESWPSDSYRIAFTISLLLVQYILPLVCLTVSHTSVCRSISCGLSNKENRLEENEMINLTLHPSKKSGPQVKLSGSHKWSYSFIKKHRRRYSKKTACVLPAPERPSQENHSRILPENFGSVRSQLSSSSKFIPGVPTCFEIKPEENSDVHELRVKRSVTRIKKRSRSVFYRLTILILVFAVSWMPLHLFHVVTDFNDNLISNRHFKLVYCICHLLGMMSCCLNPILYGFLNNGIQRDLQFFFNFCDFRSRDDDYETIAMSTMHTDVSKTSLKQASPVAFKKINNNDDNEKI

T5: Human Y5 receptor (NPY5) (human, UniProt Q15761 1-445)
T5 construct: Full-length receptor expressed by baculovirus in Sf9 insect cells; assayed in purified Sf9 membranes, not on whole cells; also called native NPY5 receptor; hY5
T5 sequence: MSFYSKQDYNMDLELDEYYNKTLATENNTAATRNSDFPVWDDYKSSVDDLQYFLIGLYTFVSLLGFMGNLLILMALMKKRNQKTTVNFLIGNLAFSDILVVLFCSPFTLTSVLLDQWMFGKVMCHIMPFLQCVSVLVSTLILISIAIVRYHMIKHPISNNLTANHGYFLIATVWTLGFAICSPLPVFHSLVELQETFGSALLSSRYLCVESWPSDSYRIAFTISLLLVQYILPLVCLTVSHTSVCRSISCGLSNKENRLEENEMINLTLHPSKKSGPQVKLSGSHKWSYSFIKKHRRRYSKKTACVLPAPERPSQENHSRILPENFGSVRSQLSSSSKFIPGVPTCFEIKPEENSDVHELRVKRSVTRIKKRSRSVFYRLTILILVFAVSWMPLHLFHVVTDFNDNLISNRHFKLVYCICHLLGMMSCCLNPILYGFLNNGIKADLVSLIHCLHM


Tests used:
NPY5 receptor = target: T1, NPY5 receptor; assay: [125I]PYY competition binding, Sf9 membranes expressing NPY5; conditions: displacement of 0.050 nM [125I]PYY (porcine)
Protocol: (§1) 72 hours post-infection, a sample of cell suspension was analyzed for viability by trypan blue dye exclusion, and the remaining Sf9 cells were harvested via centrifugation (3000 rpm/10 minutes/4° C.).
(§2) Sf9 cell pellets prepared in Example 3 were resuspended in homogenization buffer (10 mM HEPES, 250 mM sucrose, 0.5 μg/ml leupeptin, 2 μg/ml Aprotinin, 200 μM PMSF, and 2.5 mM EDTA, pH 7.4) and homogenized using a POLYTRON homogenizer (setting 5 for 30 seconds). The homogenate was centrifuged (536×g/10 minutes/4° C.) to pellet the nuclei. The supernatant containing isolated membranes was decanted to a clean centrifuge tube, centrifuged (48,000×g/30 minutes, 4° C.) and resuspended in 30 ml homogenization buffer. This centrifugation and resuspension step was repeated twice. The final pellet was resuspended in ice cold Dulbecco's PBS containing 5 mM EDTA and stored at −80° C. in aliquots until needed. The protein concentration of the resulting membrane preparation was measured using the Bradford protein assay (Bio-Rad Laboratories, Hercules, Calif.).
(§3) Purified P2 membranes, prepared by the method given above in Example 4, were washed with PBS and resuspended by Dounce homogenization (tight pestle) in binding buffer (50 mM Tris-HCl, 5 mM KCl, 120 mM NaCl, 2 mM CaCl2, 1 mM MgCl2, 0.1% BSA, pH 7.4).
(§4) Nonspecific binding was determined in the presence of 1 μM NPY (human, American Peptide Co., Sunnyvale, Calif.) and accounted for less that 10% of total binding. Following a 2-hour incubation at room temperature, the reaction was terminated by rapid vacuum filtration. Samples were filtered over presoaked (in 1.0% polyethyeneimine for 2 hours prior to use) GF/C WHATMAN filters and rinsed 2 times with 5 mLs cold binding buffer without BSA. Remaining bound radioactivity was quantified by gamma counting. Ki and Hill coefficient (“nH”) were determined by fitting the Hill equation to the measured values with the aid of SIGMAPLOT software (SPSS Inc., Chicago).

[1] = target: T2, NPY5ΔY1IC3 chimeric receptor; assay: [125I]PYY competition binding, Sf9 membranes expressing NPY5ΔY1IC3; conditions: displacement of 0.050 nM [125I]PYY (porcine)
Protocol: as §1, §2, §3, §4

[2] = target: T3, NPY5ΔY1CT chimeric receptor; assay: [125I]PYY competition binding, Sf9 membranes expressing NPY5ΔY1CT; conditions: displacement of 0.050 nM [125I]PYY (porcine)
Protocol: as §1, §2, §3, §4

Human NPY5ΔY1CT chimera = target: T4, Human NPY5ΔY1CT chimera; assay: displacement of 0.050 nM [125I]PYY (porcine) from Sf9 membranes, filtration
Protocol: (§5) Following a 2-hour incubation at room temperature, the reaction was terminated by rapid vacuum filtration. Samples were filtered over presoaked (in 1.0% polyethyeneimine for 2 hours prior to use) GF/C WHATMAN filters and rinsed 2 times with 5 mLs cold binding buffer without BSA. Remaining bound radioactivity was quantified by gamma counting. Kᵢ and Hill coefficient (“nH”) were determined by fitting the Hill equation to the measured values with the aid of SIGMAPLOT software (SPSS Inc., Chicago).

Human Y5 receptor (NPY5) = target: T5, Human Y5 receptor (NPY5); assay: as above
Protocol: as §5

Ki (Human NPY5ΔY1CT chimera) [nM]	Ki (Human Y5 receptor (NPY5)) [nM]	Molecule	nH (Hill coefficient) (NPY5 receptor)	nH (Hill coefficient) [1]	nH (Hill coefficient) [2]
–	–	human NPY 13-36 [HNPY 13-36]	0.7	1.0	0.5
–	–	human D-Trp 32 NPY	0.7	0.8	0.9
–	–	human NPY 1-36 [HNPY 1-36]	0.7	1.0	0.7
–	–	human NPY 3-36 [HNPY 3-36]	0.7	1.2	0.6
0.31	–	APLEPVYPGDNATPEQMAQYAADLRRYINMLTRPRY (peptide, UniProt P01298 30-65, looked up, also called hPP; HPP) [human pancreatic polypeptide]	–	–	–
–	20	PAEDMARYYSALRHYINLITRQRY (peptide, UniProt P01303 41-64, looked up, ends and bridges not checked, range 13-36; also called HNPY 13-36) [human NPY 13-36]	–	–	–
